Test results reported in patent US20030055023A1, “Formulations containing etomidate and a sulfoalkyl ether cyclodextrin” (priority 2001, published 2003).
Converted amounts (≈) assume the structure as drawn.

Assay: Solubility of etomidate
Format: physicochemical
Settings: aqueous buffer
Excerpt: . […] . No. 4,289,783 to Mesens).
By “therapeutic agent/SAE-CD complex” is generally meant a clathrate or inclusion complex of a sulfoalkyl ether cyclodextrin derivative of the formula (1) and a therapeutic agent. By “complexed” is meant “being part of a clathrate or inclusion complex with”, i.e., a complexed therapeutic agent is part of a clathrate or inclusion complex with a sulfoalkyl ether cyclodextrin derivative. By “major portion” is meant at least about 50% by weight of the therapeutic compound. Thus, a formulation according to the present invention will contain a therapeutic agent of which more than about 50% by weight is complexed with an SAE-CD. In various embodiments, preferably greater than 60% by weight, more preferably greater than 75% by weight, even more preferably greater than 90% by weight, and most preferably greater than 95% by weight of the therapeutic agent will remain complexed with an SAE-CD while in the pharmaceutical formulation. The actual percent of drug that is complexed will vary according to the complexation equilibrium constant characterizing the complexation of a specific SAE- CD to a specific drug. […] . In this case the amount complexed is only 75%. Generally, the greater the percentage of drug that is complexed, the more effectively the SAE-CD will reduce pain on injection. […]

With `CCOC(=O)c1cncn1[C@H](C)c1ccccc1` [Etomidate, (R)-(+)ethyl 1-(1-phenylethyl)-1H-imidazole-5-carboxylate] the solubility (0.025 M phosphate buffer at pH 7.0) was roughly 450 µg/mL (≈ 1840 µM) and the solubility (25mM phosphate buffer, pH 7.4) was 450 µg/mL (≈ 1840 µM).
